Literature values as cited in patent US5945412A, “Methods and compositions for preventing and treating bone loss” (Merck & Co., Inc., priority 1997, dated 1999).

Test system: human type 2 enzyme (5α-reductase)
Conditions: background statement

For `CC(C)(C)NC(=O)[C@H]1CC[C@H]2[C@@H]3CC[C@H]4NC(=O)C=C[C@]4(C)[C@H]3CC[C@]12C` [Finasteride, 17β-(N-tert-butylcarbamoyl)-3-oxo-4-aza-5α-androst-1-en-3-one], the “inhibition of the human type 2 enzyme (in words)” value is given as “potent inhibitor”.
